Assay results published in PubChem BioAssay (NCI).
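A five-concentration, 48-hour dose response in 96-well plates underlies each endpoint, interpolated linearly between surrounding concentrations. TGI: concentration producing complete growth inhibition.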

Tests used:
Assay in all cases: NCI-60 cell line screen, 48 h
786-0 renal = test system: 786-0 renal
A498 renal = test system: A498 renal
ACHN renal = test system: ACHN renal
DMS 273 small cell lung = test system: DMS 273 small cell lung
KM20L2 colon = test system: KM20L2 colon
NCI-H226 lung = test system: NCI-H226 lung
SK-MEL-5 melanoma = test system: SK-MEL-5 melanoma
UO-31 renal = test system: UO-31 renal
MCF7 breast = test system: MCF7 breast
T-47D breast = test system: T-47D breast

Structure (SMILES) | TGI (786-0 renal) [µM] | TGI (A498 renal) [µM] | TGI (ACHN renal) [µM] | TGI (DMS 273 small cell lung) [µM] | TGI (KM20L2 colon) [µM] | TGI (NCI-H226 lung) [µM] | TGI (SK-MEL-5 melanoma) [µM] | TGI (UO-31 renal) [µM] | TGI (MCF7 breast) [µM] | TGI (T-47D breast) [µM]
Cc1cccc(C)c1N1C(=O)C(=O)C(c2nc3ccccc3s2)/C(=N/NC(=O)c2ccccc2O)C1=O (stereo unspecified) | > 66 | > 100 | > 89.4 | 22.5 | > 100 | 56.5 | > 53.7 | 22.4 |  | 
N#CC(C#N)=Cc1ccc(CP(=O)(O)O)cc1 | > 100 | > 100 | > 100 | > 100 | > 100 | > 100 | > 100 | > 100 |  | 
COc1ccc2c(c1)NC1(O)c3ccccc3C(=O)C21O (stereo unspecified) | > 100 | > 100 | > 100 | > 100 | > 100 | > 100 | > 100 | > 100 |  | 
O=S(=O)(N=NC=C1c2ccccc2N(O)c2ccccc21)c1ccc(Cl)cc1 | > 100 | > 100 | > 100 | > 100 | > 100 | > 100 | > 100 | > 100 |  | 
CC1=NOC(=O)/C1=C/c1ccc([N+](=O)[O-])cc1 | > 100 | > 100 | > 100 | > 100 | > 100 | > 100 | > 100 | > 100 |  | 
CC(C)(C)N/N=C(\C(=O)Nc1nc(=S)[nH][nH]1)C1C(=O)Nc2ccccc2S1=O (stereo unspecified) | > 100 | > 100 | > 100 | > 100 | > 100 | > 100 | > 100 | > 100 |  | 
CC(=O)NNc1nc(C)c(C(=O)/C=C/c2ccc(Cl)cc2)s1 | > 100 | > 100 | > 100 | > 100 | > 100 |  | > 100 | > 100 |  | 
CCCCc1c2cnccc2c(CCCC)c2c1[nH]c1ccccc12 | 24.1 | 35.2 | 30.6 | 27.9 | > 100 | 34 |  | 29.8 |  | 
Cc1nc(/C=C2\C(=O)C=Cc3ccccc32)c(O)o1 | > 100 | > 100 | > 100 |  | > 100 |  | > 100 | > 100 |  | 
N/N=C(\c1nc2ccc(Cl)cc2[nH]c1=O)C(O)c1ccc(Cl)c(Cl)c1 (stereo unspecified) | > 100 |  | > 100 | > 100 | > 100 | > 100 | > 100 | > 100 |  | 
COc1cc2c(cc1OC)C1Cc3ccc(OC)c(OC)c3C[N+]1([O-])CC2 (stereo unspecified) | > 100 | > 100 | > 100 |  | > 100 |  | > 100 | > 100 |  | 
CC1CC(C)C2OC2(C)C[C@H](C)C(=O)NC(C)C(=O)N(C)[C@H](Cc2c(Br)[nH]c3ccccc23)C(=O)N[C@@H](c2ccc(O)cc2)CC(=O)O1 (stereo partly specified) | 19.1 | 1.79 | 27.2 | 83.1 | > 50.1 | 2.23 | 17.1 | 27.3 |  | 
COc1ccc(C(=O)CC2=Nc3nnc(CCCCCCCc4nnc5n4C(=O)C(CC(=O)c4ccc(OC)cc4)=N5)n3C2=O)cc1 | > 100 | > 100 | > 100 |  | > 100 | > 100 | > 100 | > 100 |  | 
COc1cc(C(C)c2cc3c(cc2OCCNC(=O)COc2cc4c(cc2C(C)c2cc(OC)c(OC)c(OC)c2)OCO4)OCO3)cc(OC)c1OC (stereo unspecified) | > 100 | > 100 | > 100 | > 100 | > 100 | > 100 | > 100 | > 100 |  | 
CCCN(CCC)C(=O)c1nc(N)nc(-c2ccc(OC)cc2)c1-c1ccc(OC)cc1 | > 100 | > 100 | > 100 | > 100 | > 100 | > 100 | > 100 | > 100 |  | 
O=C1CNC(=O)c2[nH]cnc2N1 | > 100 | > 100 | > 100 | > 100 |  | > 100 | > 100 | > 100 |  | 
CCOc1ccc(NCC2CC/C(=C\c3ccccc3OC)C2=O)cc1 (stereo unspecified) | 8.3 | 33.9 | 27.8 | 6.76 | 28.4 | 34.1 | 30.3 | 26.2 |  | 
CCCCCCCC/C=C1\CCC(CN2CCOCC2)C1=O (stereo unspecified) | 3.07 | 29.9 | 30.1 |  | 33 | 33.3 | 23.2 | 16.6 | 6.18 | 4.57
C/C(CC(=O)Nc1ccccc1C)=N/NS(=O)(=O)c1ccc(C)cc1 | > 100 | > 100 | > 100 | > 100 | > 100 | > 100 | > 100 | > 100 |  | 
Cc1ccc(S(=O)(=O)OC(COC(=O)c2ccccc2)C(OS(=O)(=O)c2ccc(C)cc2)C(OS(=O)(=O)c2ccc(C)cc2)C(COC(=O)c2ccccc2)OS(=O)(=O)c2ccc(C)cc2)cc1 (stereo unspecified) | > 100 | > 100 | > 100 | > 100 | > 100 |  | > 100 | > 100 |  | 
